Key:
[1] = tested on: cancer cell lines (HepG2, Hep3B, 293T, MCF-7, MDA-MB-231, K562, HEL, HL60, U251, U373MG, U87MG); assay: Microscopic observation of growth inhibition and apoptosis, cancer cell lines; type: cell-based, human; settings: 2 μM, 48 h
Protocol: (§3) Liver cancer cell lines (HepG2, Hep3B), a human embryonic kidney cell line (293T), breast cancer cell lines (MCF-7, MDA-MB-231), blood tumor cell lines (K562, HEL, HL60), glioblastoma cell lines (U251, U373MG, U87MG), a mammary epithelial cell line (MCF10A), a lung epithelial cell line (BEAS2B), human mesenchymal stem cells (hMSCs), and mouse primary T cells (resting and activated T cells) were inoculated into 96-well plates at a density of 3,000 cells/well, supplemented with 50 μl of culture solution, and cultured at 37° C. and 5% CO2 for 1 h. […] After completion of the culture, cells were observed under an inverted phase contrast microscope and their morphological changes were imaged.

[2] = tested on: MCF-7, 293T, MDA-MB-231 mammospheres; assay: Mammosphere culture of cancer cell lines, microscopy; type: cell-based, human; settings: 2 μM, 4 days
From the text: Cancer cell lines (MCF-7, 293T, MDA-MB-231) were inoculated at a density of 1×10^4 cells/ml into polyHEMA-coated 100 phi Petri dishes. […] Cells were observed under an inverted phase contrast microscope once a day and their morphological changes were imaged. […] Mammosphere culture of cancer cell lines is known to increase the number of cancer stem cells.

[3] = tested on: human embryonic stem cell line (H9) and co-cultured cells; assay: Microscopy of human embryonic stem cell line (H9) in co-culture; type: cell-based
Protocol: Two colonies of a human embryonic stem cell line (H9) per well were inoculated into 96-well plates on which normal embryonic epithelial cells or embryonic epithelial cells fluorescently stained with rhodamine were plated, followed by culture for 24 h.

[4] = tested on: CD34+ hematopoietic progenitor cells (HPCs); assay: Microscopy of hematopoietic progenitor cells and cells differentiating into erythrocytes; type: cell-based, human; settings: up to 10 μM, 72 h; days 3, 7, 14 of differentiation
Protocol: Cells were observed under an inverted phase contrast microscope and their morphological changes were imaged. The CD34+ hematopoietic progenitor cells were cultured in IMDM media containing 1% BSA. For differentiation induction into erythrocytes, cells were cultured with EPO, SCF, IL-3, and hydrocortisone for the first 7 days, and thereafter, cultured in media supplemented with EPO, SCF, and IL-3 only.

[5] = tested on: liver cancer cell lines (HepG2, Hep3B); assay: MTT cell viability, liver cancer cell lines; type: cell-based, human; settings: 0-10 μM, 24-96 h
Protocol: (§4) Liver cancer cell lines (HepG2, Hep3B) were inoculated into 96-well plates at a density of 3000 cells/well, and then 50 μl of culture solution was added thereto. Cells were cultured at 37° C. and 5% CO2 for 1 h. […] Cells were cultured at 37° C. and 5% CO2 for 24, 48, 72, and 96 h. After completion of the culture, the remaining culture solution was removed from the well plates, the cultures were diluted with MTT solution (3-(4,5-dimethylthiazol-2-yl)-2,5-diphenyltetrazole bromide) to a final density of 500 μg/ml, and cells were cultured at 37° C. and 5% CO2 for 3 h. The remaining MTT solution was removed and 150 μl of dimethyl sulfoxide (DMSO) was added. The reaction was carried out at room temperature for 20 min. After completion of the reaction, absorbance was measured using a microplate reader.

[6] = tested on: breast cancer cell lines (MCF7, MDA-MB-231); assay: MTT cell viability, breast cancer cell lines; type: cell-based, human; settings: 0-10 μM, 24-96 h
Protocol: as §4

[7] = tested on: glioblastoma cell lines (U251, U87MG, U343); assay: MTT cell viability, glioblastoma cell lines; type: cell-based, human; settings: 0-10 μM, 24-96 h
Protocol: as §4

[8] = tested on: human blood cancer cell lines (K562, HEL, HL60); assay: MTT cell viability, human blood cancer cell lines; type: cell-based; settings: 0-10 μM, 24-96 h
Protocol: as §4

[9] = tested on: human embryonic kidney cancer cell line (293T); assay: MTT cell viability, 293T; type: cell-based; settings: 0-10 μM, 24-96 h
Protocol: as §4

[10] = tested on: glioblastoma cell lines (U343, U373MG, U251, U87MG); assay: IC50 of Peptide 5-2C over time in glioblastoma cell lines; type: cell-based, human; settings: one-time treatment
Protocol: After one-time treatment of various glioblastoma cell lines (U343, U373MG, U251, and U87MG) with Peptide 5-2C, IC50 values were measured with time using the Graph Prism Pad 6 program.

[11] = tested on: U343 glioblastoma cell line tumors; assay: Mouse model transplanted with U343 glioblastoma cell line; type: in vivo; settings: 3 mg/kg directly into tumor sites every three days, day 70, vs physiological saline
Protocol: U343 glioblastoma cell line (2.5×10^6 cells/50 μl) was injected subcutaneously into the backs of 5-week-old male BALB/C nude mice (n=6/group), Peptide 5-2C (3 mg/kg) was directly injected into the tumor sites every three days from the time when the tumor sizes increased to about 8 mm^2, the body weights of the mice and the volumes of the tumors were measured, the mice were sacrificed on day 70 after the peptide injection, and the tumors, blood, and major organs were excised. The tumor sizes were measured using a vernier calipers and the tumor volumes were calculated by (major axisxminor axis^2)/2. Peripheral blood was collected from the ophthalmic artery of each mouse using a microcapillary coated with EDTA and stored in a sample tube coated with 5.4 mg EDTA. The tumors and the major organs were excised by dissection. The collected blood was subjected to a fundamental complete blood cell count (CBC) using a Coulter LH 750 Hematology analyzer. After the tumors were weighed, the tumors and the major organs were stained with 4% formaldehyde. Tissue slices were prepared through paraffin section and stained with hematoxylin/eosin. Acquired data were statistically analyzed using the Excel program.

[12] = tested on: A431 human epidermoid carcinoma cell line tumors; assay: Mouse model transplanted with A431 epidermoid carcinoma cell line; type: in vivo; settings: 1.7 and 3.5 mg/kg, tail vein, every other day, five times, day 13
Protocol: (§1) After the tumors were weighed, the tumors and the major organs were stained with 4% formaldehyde. Tissue slices were prepared through paraffin section and stained with hematoxylin/eosin. Acquired data were statistically analyzed using the Excel program.

[13] = tested on: MDA-MB-231 cell line (LM1 cells) tumors and lung metastasis; assay: Mouse model transplanted with MDA-MB-231 (LM1) breast cancer cell line; type: in vivo
Protocol: as §1, with “The collected blood was subjected to a fundamental CBC using a Coulter LH 750 Hematology analyzer. After” for “After”

CP2c = assay: Luciferase reporter assay of CP2c transcriptional activity in 293T cells; type: cell-based, human; settings: 2 μM, 48 h, wild-type CP2c binding sites, compared with FQI1
Protocol: 293T cells were inoculated into a 12-well plate at a density of 1×10^5 cells/well. 12 h after inoculation, cells were transfected with combinations of a reporter vector (the wild-type reporter links the enhancer sequence of the GATA-1 gene including twice repeated CP2c-binding sites to the upstream of the luciferase gene and Mut 1/3, Mut 2/4, and Mut 1-4 reporters cause mutations of the CP2c binding sites present in the enhancer sequence) and various Flag-CP2c, HA-CP2b, and HA-PIAS1 expression vectors by using the effectene method. After 1-h culture, cells were treated with FQI1, Peptide 5C, and Peptide 5-2C at concentrations of 2 μM, followed by 48-h culture. Cells were harvested and lysed in 250 μl of passive cell lysis buffer (Promega) to obtain an extract. 20 μl of the cell extract and a dual-luciferase assay kit (Promega) were used to measure the activity of the labeled luciferase gene in GLOMAX (Promega) (the expression of each expression vector was confirmed by Western blotting).

MCF-10A cell line = assay: Cell cycle analysis by FACS, MCF-10A; type: cell-based, human; settings: 0, 1, 2, 3, 10 μM, 48 h
Protocol: (§2) 5×10^5 cells of each of MEL, K562, MCF-10A, and MDA-MB-231 cell lines were inoculated into 100 mm dishes. 24 h after inoculation, cells were treated with Peptide 5-2C such that the final concentrations were 0, 1, 2, 3, and 10 μM. 48 h after Peptide 5-2C treatment, cells were collected by trypsin treatment. Thereafter, 1×10^6 cells were suspended in 0.5 ml PBS and dissociated into single cells by pipetting. The cell suspension was transferred to a centrifugal tube containing 4.5 ml of 70% ethanol and allowed to stand at 4° C. for 2 h to immobilize the cells. A cell sediment was obtained by centrifugation, washed with 5 ml of PBS solution, sufficiently suspended in 1 ml of PI staining solution, and stained in the dark for 30 min. Cell fluorescence was measured in BD FACSAria and cell cycle was analyzed using the software provided from the same company.

MEL cell line = assay: Cell cycle analysis by FACS, MEL; type: cell-based, mouse; settings: 0, 1, 2, 3, 10 μM, 48 h
Protocol: as §2

[14] = tested on: K562 cell line and MDA-MB-231 cell line; assay: Cell cycle analysis by FACS, K562 and MDA-MB-231; type: cell-based, human; settings: 0, 1, 2, 3, 10 μM, 48 h
Protocol: as §2

MCF7 cell line = assay: Western blotting of cell cycle-related marker proteins in MCF7; type: cell-based, human; settings: 2 μM for 0-72 h; 1, 2, 3 μM for 48 h
Protocol: 1×10^5 cells of MCF7 breast cancer cell line were inoculated into a 6-well plate. 24 h after inoculation, cells were treated with Peptide 5-2C at a final concentration of 2 μM. After 0, 24, 48, and 72 h, cell extracts were collected in the same manner as in Example 6. Western blotting was performed using various antibodies against cell cycle-related marker genes. On the other hand, cell extracts were obtained from the groups treated with Peptide 5-2C at final concentrations of 1, 2, and 3 μM for 48 h and Western blotting was performed in the same manner.

MDA-MB-231 cell line = assay: Electron microscopy of cell morphology, MDA-MB-231; type: cell-based, human; settings: 2 μM, 24 and 48 h
From the text: The collected cells were washed once with physiological saline.

[15] = tested on: normal cell lines (MCF10A, BEAS2B, hMSCs, mouse primary T cells)
Protocol: as §3

[16] = tested on: human mesenchymal stem cells (hMSC)
[17] = tested on: human embryonic stem cells (hESCs, H9)
From the text: MEF cells labeled with rhodamine were often used to distinguish them from hESC-derived cells.

[18] = 1.7 and 3.5 mg/kg, tail vein, every three days, five times, day 30, vs control

Protocol for MCF10A cell line: 1.5×10^6 cells of MDA-MB-231 cell line and 5×10^5 cells of MCF10A cell line were inoculated into 100 mm dishes. […] After culture for 24 and 48 h, cells were collected. The culture solution was centrifuged and surface adherent cells were collected by trypsin treatment. The collected cells were washed once with physiological saline. The cell sediment was directly treated twice with 2.5% aqueous glutaraldehyde solution (each for 10 min). Samples for electron microscopy were prepared and imaged in accordance with general methods.

NYPQRPCRGDKGPDC [Peptide 5-2C, Ac-NYPQRPCRGDKGPDC-Amide]
growth inhibition and apoptosis induction of cancer cell lines (microscopy) [1]: specifically inhibited the growth of the cancer cell lines and induced apoptosis | formation of mammospheres and cell growth [2]: the formation of mammospheres was effectively inhibited and cell growth was decreased | death of embryonic stem cells and co-cultured cells [3]: none of the embryonic stem cells and the co-cultured cells died | growth inhibition and apoptosis of HPCs and cells differentiating into erythrocytes (microscopy) [4]: growth inhibition and apoptosis of the cells were not observed | relative viability (MTT), liver cancer cell lines, compared with FQI1 [5]: more effectively inhibited the growth of the liver cancer cell lines and induced apoptosis than FQI1 | relative viability (MTT), breast cancer cell lines, compared with FQI1 [6]: more effectively inhibited the growth of the breast cancer cell lines and induced apoptosis than FQI1 | relative viability (MTT), glioblastoma cell lines, compared with FQI1 [7]: more effectively inhibited the growth of the glioblastoma cell lines and induced apoptosis than FQI1 | relative viability (MTT), K562, HEL, HL60, compared with FQI1 [8]: slightly effectively inhibited the growth of the glioblastoma cell lines and induced apoptosis compared to FQI1 | relative viability (MTT), 293T, compared with FQI1 [9]: inhibited the growth of the glioblastoma cell lines and induced apoptosis similarly to FQI1 | IC50 at 48 h compared with 96 h [10]: the IC50 values after 48 h were similar to those after 96 h | body weight, major CBC indices, histologic/anatomic characteristics of major organs [11]: there were no differences in the weight of the mice, the major CBC indices of the mice, and the histologic/anatomic characteristics of the major organs | reduction of tumor volume [11]: ~60% | reduction of tumor weight [11]: ~60% | histologic/anatomic characteristics of the major organs [12]: no significant changes in the histologic/anatomic characteristics of the major organs | reduction of tumor volume [12]: ≥ 70% | reduction of tumor weight [12]: ≥ 60% | reduction of number of tumor foci metastasized to the lung [13, 18]: ~50% | reduction of tumor weights [13, 18]: ~30% | number of leukocytes ([13]; control tumor mice had twice the number of normal mice): close to the normal value | CP2c-mediated transcriptional activity (luciferase reporter) (CP2c): effectively inhibit CP2c-mediated transcriptional activity compared to FQI1 | cell cycle changes in MCF-10A (MCF-10A cell line): no substantial changes in cell cycle were observed | number of cells in subG1 phase in MEL (MEL cell line): the number of cells in the subG1 phase was significantly increased only at high concentrations | cell cycle phase distribution in K562 and MDA-MB-231 [14]: the number of cells in the S phase was decreased, the number of cells in the G2/M phase was increased, and an increase in the number of cells in the subG1 phase was dependent on the concentration of Peptide 5-2C | expression of cell cycle-related marker proteins (MCF7 cell line): the expressions of Cyclin E, p21, and p53 increased gradually and the expressions of CDK1 and Cyclin B1 decreased gradually | intracellular structural abnormalities in MDA-MB-231 (electron microscopy) (MDA-MB-231 cell line): significantly different intracellular structural abnormalities were observed in the Peptide 5-2C-treated group compared to in the FQI1-treated group | effect on normal cell lines (microscopy) [15]: without substantially affecting the normal cell lines | cytotoxicity (MTT) in hMSC [16]: no substantial cytotoxicity even at high concentrations | cytotoxicity (MTT) in hESCs [17]: no substantial cytotoxicity even at high concentrations | intracellular structural abnormalities in MCF10A (electron microscopy) (MCF10A cell line): no intracellular structural abnormalities were observed
